Laboratory results as given in a compilation of properties of binary mixtures (doi:10.1016/j.molliq.2014.07.031).

Assay: xn = mol fraction of the nth substance listed
Settings: 101 kPa

CCCCCC[n+]1ccn(C)c1.[I-] + [I-].[Li+]
Settings | electrical conductivity, x1 = 0.32 [S/m] | electrical conductivity, x1 = 0.59 [S/m] | viscosity, x1 = 0.32 [mPa·s] | viscosity, x1 = 0.59 [mPa·s] | viscosity, x1 = 1 [mPa·s]
288.1 K | 0.0025 | 0.0002 | – | – | –
293 K | 0.0046 | 0.0005 | – | – | 2633
298.1 K | 0.0086 | – | – | – | 1742
303 K | 0.011 | 0.0019 | – | 7760 | –
308.1 K | 0.0189 | – | – | – | 802
313 K | 0.032 | 0.0054 | – | 2420 | 564
318.1 K | 0.0536 | 0.0086 | – | 1470 | 405
323 K | 0.0894 | 0.0133 | – | 989 | 279
328.1 K | 0.145 | 0.0206 | – | 682 | –
333 K | – | 0.0301 | – | 491 | 164
338.1 K | – | 0.0428 | – | 359 | 123.6
343 K | 0.504 | 0.0601 | 380 | 272 | 100.4
348.1 K | – | 0.082 | – | 219 | 79.9
353 K | 0.842 | 0.109 | 225 | 179 | 64.6
358.1 K | 1.04 | 0.142 | 177 | 144.7 | 52.1
363 K | 1.27 | 0.182 | 144.7 | 119.9 | 42
368.1 K | 1.61 | 0.232 | 124.1 | 101.5 | –
373 K | – | 0.287 | – | – | –
